Measurements: patent US20160257697A1, “THIOPHENE-SUBSTITUTED TETRACYCLIC COMPOUNDS AND METHODS OFUSE THEREOF FOR THE TREATMENT OF VIRAL DISEASES” (priority 2013, published 2016)
Read-outs that look alike come from different tables or passages of the source.

Experiments:
Experiment in all cases: microbe, parasite or virus in culture
Type in all cases: cell-based, Hepatitis C virus (HCV)
Settings in all cases: Replicon Assay A
HCV replicon 2B = system: HCV replicon 2B
In short: (§1)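 Cells seeded 2000/well + compound; 0.5% DMSO, 5% FBS; harvest day 3, lyse. Multiplex TaqMan RT-PCR for replicon (Neo probe) and cyclophilin RNA; amounts from Ct vs log(ng) linear regression of replicon total RNA standards.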

HCV replicon 1AY93H = system: HCV replicon 1AY93H
In short: as §1

HCV replicon 1A = system: HCV replicon 1A
In short: as §1

[1] = Hepatitis C virus, read-out: 2B IC50, HCV replicon 2B
[2] = Hepatitis C virus, read-out: 1A Y93H IC50, HCV replicon 1A Y93H
[3] = Hepatitis C virus, HCV replicon 1A
[4] = read-out: 2B IC50, HCV replicon 2B
[5] = read-out: 1A Y93H IC50, HCV replicon 1A Y93H
[6] = read-out: 1A Y93H IC50, replicon 1AY93H
[7] = Hepatitis C virus, read-out: 1A Y93H IC50 (nM), replicon 1AY93H

Row | SMILES | IC50 (HCV replicon 2B; [4]) | IC50 (HCV replicon 2B; read-out: 2B IC50, replicon 2B) | IC50 (HCV replicon 1AY93H; [6]) | IC50 (HCV replicon 1A; replicon 1A) | also measured
1 | COC(=O)N[C@H](C(=O)C1NCC[C@H]1c1ncc(-c2ccc3c(c2)OC(c2ccc(C4CC4)s2)n2c-3cc3cc(-c4c[nH]c([C@@H]5C[C@H]6C[C@H]6N5C(=O)[C@@H](NC(=O)OC)C(C)C)n4)ccc32)[nH]1)C(C)C (mixture of isomers) [Compound 504] | – | – | – | – | IC50 (HCV replicon 2B; [1]): 1.52 nM; IC50 (HCV replicon 1AY93H; [2]): 0.245 nM; IC50 (HCV replicon 1A; [3]): 0.0167 nM
2 | CCc1ccc(C2Oc3cc(-c4cnc([C@@H]5CCCN5C(=O)[C@@H](NC(=O)OC)C(C)C)[nH]4)ccc3-c3c(F)c4cc(-c5cnc([C@@H]6CCCN6C(=O)C(NC(=O)OC)C6C[C@@H](C)O[C@@H](C)C6)[nH]5)ccc4n32)s1 (single isomer, unassigned) [Compound 633] | 0.311 nM | – | – | – | IC50 (HCV replicon 1AY93H; [5]): 0.306 nM; IC50 (HCV replicon 1A; [3]): 0.0013 nM
3 | COC(=O)N[C@H](C(=O)N1CCC[C@H]1c1nc(-c2ccc3c(c2)OC(c2ccc(C)s2)n2c-3cc3cc(-c4c[nH]c([C@@H]5NCCN5C(=O)[C@@H](NC(=O)OC)C(C)C)n4)ccc32)c[nH]1)C(C)C (single isomer, unassigned) [Compound 700] | 0.39 nM | – | – | – | IC50 (HCV replicon 1AY93H; [5]): 1.17 nM; IC50 (HCV replicon 1A; HCV replicon 1A): 0.015 nM
4 | COC(=O)N[C@H](C(=O)N1CCC[C@H]1c1ncc(-c2cc(F)c3c(c2)OC(c2cc(C)sc2C)n2c-3cc3cc(-c4cnc([C@@H]5CCCN5C(=O)[C@@H](NC(=O)OC)C(C)C)[nH]4)ccc32)[nH]1)C(C)C (single isomer, unassigned) [Compound 320] | – | 5.1 nM | 5.5 nM | 0.0011 nM | –
5 | CCN(CC)[C@@H](C(=O)N1CCC[C@H]1c1ncc(-c2ccc3c(c2)cc2n3C(c3cc4ccccc4s3)Oc3cc(-c4cnc([C@@H]5C[C@@H](F)CN5C(=O)[C@@H](c5ccccc5)N(CC)CC)[nH]4)ccc3-2)[nH]1)c1ccccc1 (mixture of isomers) [Compound 808] | – | – | – | – | IC50 (HCV replicon 2B; [1]): 0.32 nM; IC50 (HCV replicon 1AY93H; [2]): 1.2 nM; IC50 (HCV replicon 1A; [3]): 0.026 nM
6 | COC(=O)NC(C(=O)N1CCC[C@H]1c1ncc(-c2ccc3c(c2)cc2n3C(c3cc(C)c(C)s3)Oc3cc(-c4cnc([C@@H]5CCCN5C(=O)[C@@H](NC(=O)OC)C5CCOCC5)[nH]4)cc(F)c3-2)[nH]1)C(C)(C)F (single isomer, unassigned) [Compound 131] | – | 9.78 nM | 3.83 nM | 0.0078 nM | –
7 | COC(=O)N[C@H](C(=O)N1CCC[C@H]1c1ncc(-c2cc(C)c3c(c2)OC(c2cc4c(s2)CCC4)n2c-3cc3cc(-c4cnc([C@@H]5CCCN5C(=O)[C@@H](NC(=O)OC)C5C[C@@H](C)O[C@@H](C)C5)[nH]4)ccc32)[nH]1)C(C)C (single isomer, unassigned) [Compound 549] | 0.169 nM | – | – | – | IC50 (HCV replicon 1AY93H; [5]): 0.563 nM; IC50 (HCV replicon 1A; HCV replicon 1A): 0.00715 nM
8 | COC(=O)N[C@H](C(=O)N1CCC[C@H]1c1ncc(-c2cc(F)c3c(c2)OC(c2ccc(C4CCCCC4)s2)n2c-3cc3cc(-c4cnc([C@@H]5CCCN5C(=O)[C@@H](NC(=O)OC)C(C)C)[nH]4)ccc32)[nH]1)C(C)C (single isomer, unassigned) [Compound 530] | 0.488 nM | – | – | – | IC50 (HCV replicon 1AY93H; [2]): 0.0499 nM; IC50 (HCV replicon 1A; HCV replicon 1A): 0.0131 nM
9 | COC(=O)NC(C(=O)N1CCC[C@H]1c1ncc(-c2ccc3c(c2)cc2n3C(c3ccc(C(C)C)s3)Oc3cc(-c4cnc([C@@H]5CCCN5C(=O)[C@@H](NC(=O)OC)C(C)C)[nH]4)cc(F)c3-2)[nH]1)C1CCOC(C)(C)C1 (single isomer, unassigned) [Compound 242] | – | 4.42 nM | 0.75 nM | 0.0011 nM | –
10 | COC(=O)N[C@H](C(=O)N1CCC[C@H]1c1ncc(-c2cc(F)c3c(c2)OC(c2cc(C)c(C)s2)n2c-3cc3cc(-c4cnc([C@@H]5C[C@@H](F)CN5C(=O)[C@@H](NC(=O)OC)C(C)C)[nH]4)ccc32)[nH]1)C(C)C (single isomer, unassigned) [Compound 515] | 18.7 nM | – | – | – | IC50 (HCV replicon 1AY93H; [5]): 6.54 nM; IC50 (HCV replicon 1A; HCV replicon 1A): 0.0103 nM
11 | COC(=O)NC(C(=O)N1CCC[C@H]1c1ncc(-c2cc(F)c3c(c2)OC(c2ccc(C4CCC4)s2)n2c-3cc3cc(-c4cnc([C@@H]5CCCN5C(=O)[C@@H](NC(=O)OC)C5CCOCC5)[nH]4)ccc32)[nH]1)C(C)(C)F (single isomer, unassigned) [Compound 249] | – | 5.04 nM | 1.18 nM | 0.0228 nM | –
12 | COC(=O)N[C@H](C(=O)N1C[C@H](F)C[C@H]1c1ncc(-c2ccc3c(c2)cc2n3C(c3cc4ccccc4s3)Oc3cc(-c4cnc([C@@H]5CCCN5C(=O)[C@@H](NC(=O)OC)C5CCOCC5)[nH]4)ccc3-2)[nH]1)C(C)C (single isomer, unassigned) [Compound 624] | 0.418 nM | – | – | – | IC50 (HCV replicon 1AY93H; [5]): 0.494 nM; IC50 (HCV replicon 1A; HCV replicon 1A): 0.0021 nM
13 | COC(=O)N[C@@H](Cc1ccccc1)C(=O)N1CCC[C@H]1c1ncc(-c2ccc3c(c2)OC(c2ccc(-c4ccc(NC(=O)CCCC[C@@H]5SC[C@@H]6NC(=O)N[C@@H]65)cc4)s2)n2c-3cc3cc(-c4cnc([C@@H]5CCCN5C(=O)[C@H](Cc5ccccc5)NC(=O)OC)[nH]4)ccc32)[nH]1 (single isomer, unassigned) [Compound 385] | – | 7.21 nM | 3.11 nM | 0.109 nM | –
14 | COC(=O)NC(C(=O)N1CCC[C@H]1c1ncc(-c2ccc3c(c2)cc2n3C(c3ccc(C4CC4)s3)Oc3cc(-c4cnc([C@@H]5CCCN5C(=O)[C@@H](NC(=O)OC)C(C)C)[nH]4)cc(F)c3-2)[nH]1)C1CCO[C@H](C)C1 (single isomer, unassigned) [Compound 140] | – | 8.69 nM | 5.51 nM | 0.0407 nM | –
15 | COC(=O)N[C@H](C(=O)N1CCC[C@H]1c1ncc(-c2cc(F)c3c(c2)OC(c2ccc(C(CF)CF)s2)n2c-3cc3cc(-c4cnc([C@@H]5CCCN5C(=O)[C@@H](NC(=O)OC)C(C)C)[nH]4)ccc32)[nH]1)C(C)C (single isomer, unassigned) [Compound 120] | – | 1.44 nM | – | – | IC50 (HCV replicon 1AY93H; [7]): 0.1 nM; IC50 (HCV replicon 1A; Hepatitis C virus, replicon 1A): 0.0015 nM
16 | COC(=O)N[C@H](C(=O)N1C2CC2C[C@H]1c1ncc(-c2cc(F)c3c(c2)OC(c2ccc(C4CC4)s2)n2c-3cc3cc(-c4cnc([C@@H]5CCCN5C(=O)[C@@H](NC(=O)OC)C5C[C@@H](C)O[C@@H](C)C5)[nH]4)ccc32)[nH]1)C(C)C (single isomer, unassigned) [Compound 555] | 0.197 nM | – | – | – | IC50 (HCV replicon 1AY93H; [5]): 0.105 nM; IC50 (HCV replicon 1A; HCV replicon 1A): 0.00239 nM
17 | COC(=O)N[C@H](C(=O)N1CCC[C@H]1c1ncc(-c2ccc3c(c2)cc2n3C(c3ccc(Cl)s3)Oc3cc(-c4cnc([C@@H]5CCCN5C(=O)[C@H](NC(=O)OC)C(C)C)[nH]4)cc(F)c3-2)[nH]1)C(C)C (mixture of isomers) [Compound 506] | – | – | – | – | IC50 (HCV replicon 2B; [1]): 0.471 nM; IC50 (HCV replicon 1AY93H; [2]): 0.397 nM; IC50 (HCV replicon 1A; [3]): 0.0171 nM
18 | COC(=O)N[C@H](C(=O)N1CCC[C@H]1c1ncc(-c2cc(F)c3c(c2)OC(c2ccc(C4CC4)s2)n2c-3cc3cc(-c4cnc([C@@H]5C[C@@H](F)CN5C(=O)[C@@H](c5ccccc5)N5CCC5)[nH]4)ccc32)[nH]1)C(C)C (mixture of isomers) [Compound 109] | – | – | – | – | IC50 (HCV replicon 2B; Hepatitis C virus, read-out: 2B IC50 (nM), replicon 2B): 24.4 nM; IC50 (HCV replicon 1AY93H; [7]): 4.5 nM; IC50 (HCV replicon 1A; Hepatitis C virus, replicon 1A): 0.0058 nM
19 | CCc1ccc(C2Oc3cc(-c4cnc([C@@H]5CCCN5C(=O)[C@@H](NC(=O)OC)C(C)C)[nH]4)cc(F)c3-c3cc4cc(-c5cnc([C@@H]6CCCN6C(=O)C(NC(=O)OC)C6CCOC(C)(C)C6)[nH]5)ccc4n32)s1 (single isomer, unassigned) [Compound 146] | – | 0.38 nM | 0.57 nM | 0.0012 nM | –
20 | COC(=O)NC(C(=O)N1CCC[C@H]1c1ncc(-c2ccc3c(c2)cc2n3C(c3ccc(C4CC4)s3)Oc3cc(-c4cnc([C@@H]5CCCN5C(=O)[C@@H](NC(=O)OC)C(C)C)[nH]4)cc(F)c3-2)[nH]1)C1C2COCC21 (single isomer, unassigned) [Compound 338] | – | 1.52 nM | 0.357 nM | – | IC50 (HCV replicon 1A; Hepatitis C virus, replicon 1A): 0.0024 nM
21 | COC(=O)NC(C(=O)N1CCC[C@H]1c1ncc(-c2ccc3c(c2)cc2n3C(c3ccc(C4CC4)s3)Oc3cc(-c4cnc([C@@H]5C[C@@H](F)CN5C(=O)[C@@H](NC(=O)OC)C(C)C)[nH]4)cc(F)c3-2)[nH]1)C(C)(C)F (single isomer, unassigned) [Compound 112] | – | 7.07 nM | 0.23 nM | 0.0022 nM | –
22 | COC(=O)NC(C(=O)N1CCC[C@H]1c1ncc(-c2ccc3c(c2)cc2n3C(c3ccc(C4CC4)s3)Oc3cc(-c4cnc([C@@H]5CCCN5C(=O)[C@@H](NC(=O)OC)C5CCOCC5)[nH]4)cc(F)c3-2)[nH]1)C(C)(C)F (single isomer, unassigned) [Compound 175] | – | 10.5 nM | 9.03 nM | 0.0077 nM | –
23 | COC(=O)N[C@H](C(=O)N1CCC[C@H]1c1ncc(-c2cc(F)c3c(c2)OC(c2ccc(CC4CC4)s2)n2c-3cc3cc(-c4cnc([C@@H]5C[C@H]6C[C@H]6N5C(=O)[C@@H](NC(=O)OC)C(C)C)[nH]4)ccc32)[nH]1)C(C)C (single isomer, unassigned) [Compound 390] | – | 0.754 nM | 0.314 nM | 0.003 nM | –
24 | COC(=O)NC(C(=O)N1CCC[C@H]1c1ncc(-c2cc(F)c3c(c2)OC(c2ccc(C4CC4)s2)n2c-3cc3cc(-c4cnc([C@@H]5CCCN5C(=O)[C@@H](NC(=O)OC)C(C)C)[nH]4)ccc32)[nH]1)C(C)(C)F (single isomer, unassigned) [Compound 70] | – | 24.2 nM | 10.5 nM | – | IC50 (HCV replicon 1A; Hepatitis C virus, replicon 1A): 0.0188 nM
25 | COC(=O)NC(C(=O)N1[C@@H]2C[C@@H]2C[C@H]1c1ncc(-c2ccc3c(c2)cc2n3C(c3ccc(C(F)F)s3)Oc3cc(-c4cnc([C@@H]5CCCN5C(=O)[C@@H](NC(=O)OC)C(C)C)[nH]4)cc(F)c3-2)[nH]1)C1CCOC(C)(C)C1 (single isomer, unassigned) [Compound 414] | 0.457 nM | – | – | – | IC50 (HCV replicon 1AY93H; [5]): 0.134 nM; IC50 (HCV replicon 1A; [3]): 0.0022 nM
